Assay results: patent US20230174554A1, “SOLID FORM OF MACROCYCLIC COMPOUND, PREPARATION THEREFOR AND USE THEREOF” (Shenzhen TargetRx. Inc., priority 2020, published 2023)
In brackets after ≈: the same amount, converted by molar mass.

How the values were obtained:
Type in all cases: physicochemical
[1] = Competitive slurrying testing at room temperature (trans-crystallization); conditions: isobutanol, isopropanol and methyl tert-butyl ether, one day
Procedure: 10 mg of compound A crystal form I, crystal form IV, crystal form V and crystal form VI were added to 500 μL of three different solvent systems (isobutanol, isopropanol and methyl tert-butyl ether), respectively. The mixture was slurried at room temperature for one day. The solids were dried at 50° C. under vacuum overnight and characterized by XRPD.

[2] = Heating study to 190° C. with XRPD (trans-crystallization); conditions: heated to 190° C.
Procedure: A certain amount of compound A crystal form V and VI were weighed, heated to 190° C. and then characterized by XRPD.

[3] = Dynamic moisture adsorption and desorption analysis (DVS), hygroscopicity, XRPD after test
Procedure: The samples were tested for hygroscopicity using DVS Intrinsic (SMS, UK). 30-50 mg of a sample was placed into a sample pan, and the change of sample mass with humidity at 25° C. was recorded. The instrument parameters were:
After the hygroscopicity test was completed, the crystal form of the sample was tested by XRPD.

[4] = Stability influencing factor tests of compound A crystal form I (high temperature, high humidity, illumination)
Procedure: Stability influencing factor tests were carried out on the samples of compound A crystal form I. The corresponding placement conditions and test results are listed in Table 5.

[5] = Solubility of the starting material (compound A crystal form I) in different solvents
[6] = Accelerated stability study of the free base and crystalline salts (40° C./75% RH and 60° C., HPLC and XRPD)
Procedure: The crystals were tested for HPLC and XRPD in different time points.

[7] = Solubility and stability of the free base and crystalline salts in water, SGF, FaSSIF and FeSSIF; conditions: for Crystal form / crystallinity in the vehicle: XRPD
From the text: The solubility and stability of compound A crystal form, compound A maleate crystal form I and compound A acetate crystal form I in water, SGF (simulated gastric fluid), FaSSIF (simulated intestinal fluid in fasted state) and FeSSIF (simulated intestinal fluid in fed state) were studied.

[8] = High humidity (92.5% RH/25° C.), 0 days
[9] = High humidity (92.5% RH/25° C.), 5 days
[10] = High humidity (92.5% RH/25° C.), 10 days
[11] = High humidity (92.5% RH/25° C.), 37 days
[12] = High temperature (60° C.), 0 days
[13] = High temperature (60° C.), 5 days
[14] = High temperature (60° C.), 10 days
[15] = High temperature (60° C.), 37 days
[16] = Illumination (1.2*10^6 Lux · hr, 200 w · hr/m^2), 0 days
[17] = Illumination (1.2*10^6 Lux · hr, 200 w · hr/m^2), 5 days
[18] = Illumination (1.2*10^6 Lux · hr, 200 w · hr/m^2), 10 days
[19] = FaSSIF (simulated intestinal fluid in fasted state), 37 °C, fassif, thermodynamic from solid, sample 10 mg/ml
[20] = FeSSIF (simulated intestinal fluid in fed state), 37 °C, fessif, thermodynamic from solid, sample 10 mg/ml
[21] = SGF (simulated gastric fluid), 37 °C, simulated gastric fluid, thermodynamic from solid, SGF, sample 10 mg/ml
[22] = water, thermodynamic from solid, H2O, room temperature, sample 5 mg/ml

## [2H]C([2H])([2H])n1nc2c(c1C#N)-c1cnc(N)c(c1)O[C@H](C)c1cc(F)ccc1C(=O)N(C)C2 [compound A crystal form IV, (10R)-7-amino-12-fluoro-2-(methyl-d3)-10,16-dimethyl-15-oxo-10,15,16,17-tetrahydro-2H-8,4-(metheno)pyrazolo[4,3-h][2,5,11]benzoxadiazacyclotetradecine-3-carbonitrile]
[1]
  Trans-crystallization on competitive slurrying: trans-crystallized to crystal form I

## [2H]C([2H])([2H])n1nc2c(c1C#N)-c1cnc(N)c(c1)O[C@H](C)c1cc(F)ccc1C(=O)N(C)C2 [compound A crystal form V, (10R)-7-amino-12-fluoro-2-(methyl-d3)-10,16-dimethyl-15-oxo-10,15,16,17-tetrahydro-2H-8,4-(metheno)pyrazolo[4,3-h][2,5,11]benzoxadiazacyclotetradecine-3-carbonitrile]
[2]
  Crystal form after heating: transformed into crystal form I

## [2H]C([2H])([2H])n1nc2c(c1C#N)-c1cnc(N)c(c1)O[C@H](C)c1cc(F)ccc1C(=O)N(C)C2 [compound A crystal form I, (10R)-7-amino-12-fluoro-2-(methyl-d3)-10,16-dimethyl-15-oxo-10,15,16,17-tetrahydro-2H-8,4-(metheno)pyrazolo[4,3-h][2,5,11]benzoxadiazacyclotetradecine-3-carbonitrile]
[3]; XRPD
  Crystal form before and after the DVS test: not changed
[3]; humidity increased from 0% RH to 80% RH, 25° C.
  DVS weight gain: 0.17%
[4]; [8]
  Content: 99.9%
  Shape: White solid
  Total impurity content: <0.05%
[4]; [9]
  Content: 99.5%
  Shape: White solid
  Total impurity content: <0.05%
[4]; [10]
  Content: 99.7%
  Shape: White solid
  Total impurity content: <0.05%
[4]; [11]
  Content: 99.4%
  Shape: White solid
  Total impurity content: <0.05%
[4]; [12]
  Content: 99.9%
  Shape: White solid
  Total impurity content: <0.05%
[4]; [13]
  Content: 98.8%
  Shape: White solid
  Total impurity content: <0.05%
[4]; [14]
  Content: 100.4%
  Shape: White solid
  Total impurity content: <0.05%
[4]; [15]
  Content: 99.8%
  Total impurity content: <0.05%
[4]; [16]
  Content: 99.9%
  Shape: White solid
  Total impurity content: <0.05%
[4]; [17]
  Content: 98.7%
  Total impurity content: <0.05%
[4]; [18]
  Content: 99.1%
  Total impurity content: <0.05%
[5]; Acetone
  Solubility: ~246000 µg/mL (≈ 601 mM)
[5]; Acetone, listed as starting material
  Solubility: greater than 100 mg/mL
[5]; Acetonitrile
  Solubility: ~183000 µg/mL (≈ 447 mM)
[5]; Butanone
  Solubility: ~173000 µg/mL (≈ 423 mM)
[5]; Dichloromethane
  Solubility: ~240000 µg/mL (≈ 586 mM)
[5]; Dichloromethane, listed as starting material
  Solubility: greater than 100 mg/mL
[5]; Ethanol
  Solubility: ~21000 µg/mL (≈ 51.3 mM)
[5]; Ethyl acetate
  Solubility: ~100000 µg/mL (≈ 244 mM)
[5]; Isobutanol
  Solubility: ~1700 µg/mL (≈ 4.15 mM)
[5]; Isopropanol
  Solubility: ~2500 µg/mL (≈ 6.11 mM)
[5]; Isopropanol, listed as starting material
  Solubility: 1000 to 2000 µg/mL
[5]; Isopropyl acetate
  Solubility: ~22000 µg/mL (≈ 53.7 mM)
[5]; Methanol
  Solubility: ~190000 µg/mL (≈ 464 mM)
[5]; Methyl tert-butyl ether
  Solubility: ~2500 µg/mL (≈ 6.11 mM)
[5]; Methyl tert-butyl ether, listed as starting material
  Solubility: 1000 to 2000 µg/mL
[5]; Tetrahydrofuran
  Solubility: ~215000 µg/mL (≈ 525 mM)
[5]; Tetrahydrofuran, listed as starting material
  Solubility: greater than 100 mg/mL
[5]; acetonitrile, organic solvent or mixture, thermodynamic from solid, Acetonitrile, read-out: Solubility
  Solubility: > 100000 µg/mL
[5]; butanone, organic solvent or mixture, thermodynamic from solid, Butanone, read-out: Solubility
  Solubility: > 100000 µg/mL
[5]; ethanol, organic solvent or mixture, thermodynamic from solid, Ethanol, read-out: Solubility
  Solubility: ~20000 µg/mL (≈ 48.8 mM)
[5]; ethyl acetate, organic solvent or mixture, thermodynamic from solid, Ethyl acetate, read-out: Solubility
  Solubility: > 100000 µg/mL
[5]; isobutanol, organic solvent or mixture, thermodynamic from solid, Isobutanol, read-out: Solubility
  Solubility: 1000 to 2000 µg/mL (≈ 2.44 to 4.88 mM)
[5]; isopropyl acetate, organic solvent or mixture, thermodynamic from solid, Isopropyl acetate, read-out: Solubility
  Solubility: ~20000 µg/mL (≈ 48.8 mM)
[5]; methanol, organic solvent or mixture, thermodynamic from solid, Methanol, read-out: Solubility
  Solubility: > 100000 µg/mL
[5]; water
  Solubility: ~1000 µg/mL (≈ 2.44 mM)
[5]; water, thermodynamic from solid, Water, read-out: Solubility
  Solubility: 1000 to 2000 µg/mL (≈ 2.44 to 4.88 mM)
[6]; 0 days; HPLC
  Purity %: 99.2%
[6]; 0 days; XRPD
  Crystal form: Unchanged
[6]; 40° C./75% RH, 7 days, XRPD
  Crystal form: not changed
[6]; 40° C./75% RH, 7 days; HPLC
  Purity: not changed
  Purity %: 99.4%
[6]; 40° C./75% RH, 7 days; XRPD
  Crystal form: Unchanged
[6]; 60° C., 7 days, XRPD
  Crystal form: not changed
[6]; 60° C., 7 days; HPLC
  Purity: not changed
  Purity %: 99.3%
[6]; 60° C., 7 days; XRPD
  Crystal form: Unchanged
[7]; [19]
  solubility at 0.5 h: 170 µg/mL
  solubility at 24 h: 110 µg/mL
[7]; FaSSIF (simulated intestinal fluid in fasted state), fassif, thermodynamic from solid, FaSSIF (simulated intestinal fluid in fasted state), read-out: Solubility
  Solubility: < 3000 µg/mL
[7]; FaSSIF
  Crystal form / crystallinity in the vehicle: nearly amorphous
[7]; [20]
  solubility at 0.5 h: 550 µg/mL
  solubility at 24 h: 380 µg/mL
[7]; FeSSIF (simulated intestinal fluid in fed state), fessif, thermodynamic from solid, FeSSIF (simulated intestinal fluid in fed state), read-out: Solubility
  Solubility: < 3000 µg/mL
[7]; FeSSIF
  Crystal form / crystallinity in the vehicle: nearly amorphous
[7]; [21]
  solubility at 0.5 h: 10900 µg/mL
  solubility at 24 h: 10200 µg/mL
[7]; SGF (simulated gastric fluid), simulated gastric fluid, thermodynamic from solid, SGF (simulated gastric fluid), read-out: Solubility
  Solubility: > 5000 µg/mL
[7]; water
  Solubility: < 3000 µg/mL
  Crystal form / crystallinity in the vehicle: not changed
[7]; [22]
  solubility at 0.5 h: 110 µg/mL
  solubility at 24 h: 95 µg/mL
[7]; water, listed as free base
  Solubility: less than 0.2 mg/mL
